What all share (type): biochemical
In assay [1] the target is T1, HIV-1 reverse transcriptase (Human immunodeficiency virus type 1 group M subtype B, UniProt P04585).
T1 construct: made in house
Nature of the assay: HIV-1 reverse transcriptase assay (viral polymerase inhibition).
Experimental: Standard assays were run at 37° C. and contained: 50 mM Tris, pH b 8.0, 0.5 mM DTT, 8 mM MgCl2, 100 μg/mL BSA, 150 μg/mL gapped calf thymus DNA, 100 μM each dATP, dCTP, dGTP, 10 .parallel.M [^3 H]-dTTP, and 1-5 .parallel.L enzyme in a final volume of 50 .parallel.L. Modified assays for pH dependence inhibition studies with PFA (1) and α--oxo phosphonates (4 and 5) contained 50 mM Hepes, pH 8.2-6.5, 8 mM MgCl2, 100 mM KCl, 100 μg/ml BSA, 0.5 A260 units/ml of poly(rA).(dT)10, 100 μM [^3 H]dTTP, and 1.5 .parallel.L enzyme in a final volume of 50 μL. Samples were processed as described above.

The next assay has as its target T2, HSV-1 DNA polymerase (Human herpesvirus 1, UniProt P04293).
T2 construct: made in house
Nature of the assay: Viral polymerase inhibition, HSV-1. The text has this: Viral DNA polymerases (HSV-1, HSV-2, EBV) were purified by previously published methods (Derce, D. K. F. Bastow, and Y. C. Cheng (1982) J. Boil. Chem. 257:10251-10260; Ostrander, M., and Y. C. Cheng (1980) Biochim. Biophys. Acta 609:232-245; Tan, R. S., A. Datta. and Y. C. Cheng (1982) J. Virol. 44:893-899). These procedures generally included sequential chromatography on DEAE-cellulose. HIV reverse transcriptase was purified by antibody affinity column chromatography as descrbed (Starnes. M. C. and Y. C. Cheng (1989) J. Biol. Chem. 264:7073-7077). The purified enzymes were dialyzed against and stored in 50 mM Tris-HCl (pH 7.5) containing 1 mM each of DTT, EDTA and PMSF plus 30% glycerol. Mammalian DNA polymerases alpha, beta, gamma, and delta were partially purified from K562 celles (chronic myelogenous leukemia tissue culture line). Briefly, washed cell pellets were extracted and passed throgh DEAE-cellulose in the presence of 300 mM KPO4 (pH 7.5) as previously described (Starnes, M. C., and Y. C. Cheng (1987) J. Biol. Chem 282:988-981) to remove DNA. The column flow-through fractions were dialyzed against buffer which contained 50 mM Tris-HCl (pH 7.5), and fractionated on a single-stranded DNA-cellulose column with a 0-1M KCl gradient. […]

For a further assay, the target named is T3, human DNA polymerase β (Homo sapiens, UniProt P06746).
T3 construct: Mammalian DNA polymerases alpha, beta, gamma, and delta were partially purified from K562 celles; endogenous in cells; host or cells: K562 (chronic myelogenous leukemia tissue culture line)
Kind of assay: Human DNA polymerase inhibition, beta. To be noted: for remaining activity at 100 µM: read-out: % Control at 100 μM ± S.D. The text has this: (§1) Viral DNA polymerases (HSV-1, HSV-2, EBV) were purified by previously published methods (Derce, D. K. F. Bastow, and Y. C. Cheng (1982) J. Boil. Chem. 257:10251-10260; Ostrander, M., and Y. C. Cheng (1980) Biochim. Biophys. Acta 609:232-245; Tan, R. S., A. Datta. and Y. C. Cheng (1982) J. Virol. 44:893-899). These procedures generally included sequential chromatography on DEAE-cellulose. HIV reverse transcriptase was purified by antibody affinity column chromatography as descrbed (Starnes. M. C. and Y. C. Cheng (1989) J. Biol. Chem. 264:7073-7077). The purified enzymes were dialyzed against and stored in 50 mM Tris-HCl (pH 7.5) containing 1 mM each of DTT, EDTA and PMSF plus 30% glycerol. Mammalian DNA polymerases alpha, beta, gamma, and delta were partially purified from K562 celles (chronic myelogenous leukemia tissue culture line). Briefly, washed cell pellets were extracted and passed throgh DEAE-cellulose in the presence of 300 mM KPO4 (pH 7.5) as previously described (Starnes, M. C., and Y. C. Cheng (1987) J. Biol. Chem 282:988-981) to remove DNA. The column flow-through fractions were dialyzed against buffer which contained 50 mM Tris-HCl (pH 7.5), and fractionated on a single-stranded DNA-cellulose column with a 0-1M KCl gradient.
(§2) In accordance with the teaching of the present invention similar enzyme inhibition assays were also conducted with respect to mammalian enzymes, more particularly, human DNA polymerase.

The next assay concerns the target T4, human DNA polymerase γ (Homo sapiens, UniProt P54098).
T4 construct: Mammalian DNA polymerases alpha, beta, gamma, and delta were partially purified from K562 celles; endogenous in cells; host or cells: K562 (chronic myelogenous leukemia tissue culture line)
T4 sequence (P54098 26-1239 limits assumed): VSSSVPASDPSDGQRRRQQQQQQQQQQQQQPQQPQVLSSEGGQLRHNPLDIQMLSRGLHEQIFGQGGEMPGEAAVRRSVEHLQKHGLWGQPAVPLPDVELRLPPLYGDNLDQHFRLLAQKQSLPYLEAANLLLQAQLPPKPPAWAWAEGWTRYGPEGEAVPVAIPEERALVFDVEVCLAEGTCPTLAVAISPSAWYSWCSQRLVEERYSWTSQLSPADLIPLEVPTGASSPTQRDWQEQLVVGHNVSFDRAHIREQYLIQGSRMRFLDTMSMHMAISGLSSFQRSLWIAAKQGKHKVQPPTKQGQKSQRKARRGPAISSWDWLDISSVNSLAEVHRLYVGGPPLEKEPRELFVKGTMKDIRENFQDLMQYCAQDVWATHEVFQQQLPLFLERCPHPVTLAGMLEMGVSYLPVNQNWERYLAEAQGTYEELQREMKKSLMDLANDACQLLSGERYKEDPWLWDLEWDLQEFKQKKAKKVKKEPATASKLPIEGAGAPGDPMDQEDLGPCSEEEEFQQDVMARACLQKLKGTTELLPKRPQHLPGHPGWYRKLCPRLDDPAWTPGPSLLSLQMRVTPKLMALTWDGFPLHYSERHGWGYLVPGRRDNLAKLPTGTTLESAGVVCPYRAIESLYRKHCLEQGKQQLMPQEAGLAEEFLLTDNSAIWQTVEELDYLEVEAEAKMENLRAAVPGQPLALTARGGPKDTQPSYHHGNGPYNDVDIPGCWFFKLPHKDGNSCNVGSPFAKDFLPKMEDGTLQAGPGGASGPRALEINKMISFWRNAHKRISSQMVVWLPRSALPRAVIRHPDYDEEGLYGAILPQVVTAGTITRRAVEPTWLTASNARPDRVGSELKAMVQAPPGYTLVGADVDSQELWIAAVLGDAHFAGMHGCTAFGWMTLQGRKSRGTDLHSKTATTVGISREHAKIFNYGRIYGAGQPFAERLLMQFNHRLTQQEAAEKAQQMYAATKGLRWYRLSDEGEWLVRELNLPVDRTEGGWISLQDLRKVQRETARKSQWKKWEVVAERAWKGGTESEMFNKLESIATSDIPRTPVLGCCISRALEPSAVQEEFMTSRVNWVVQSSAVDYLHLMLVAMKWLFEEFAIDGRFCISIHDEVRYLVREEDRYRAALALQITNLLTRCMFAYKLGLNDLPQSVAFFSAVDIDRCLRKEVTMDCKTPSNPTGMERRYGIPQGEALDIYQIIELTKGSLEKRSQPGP
T4 sequence (Q9UHN1 25-485 partner limits assumed): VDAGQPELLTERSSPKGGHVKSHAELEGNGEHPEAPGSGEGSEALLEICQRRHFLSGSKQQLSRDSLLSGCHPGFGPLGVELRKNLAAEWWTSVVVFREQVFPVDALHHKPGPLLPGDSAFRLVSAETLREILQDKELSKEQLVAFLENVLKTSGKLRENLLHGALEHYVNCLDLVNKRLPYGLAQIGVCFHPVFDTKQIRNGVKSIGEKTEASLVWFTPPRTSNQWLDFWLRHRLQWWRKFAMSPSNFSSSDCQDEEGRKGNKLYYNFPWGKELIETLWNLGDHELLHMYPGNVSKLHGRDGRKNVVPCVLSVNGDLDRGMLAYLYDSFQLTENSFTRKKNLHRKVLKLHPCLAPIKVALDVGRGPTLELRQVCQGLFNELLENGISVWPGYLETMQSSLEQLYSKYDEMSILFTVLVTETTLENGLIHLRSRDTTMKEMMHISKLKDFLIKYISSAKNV
Nature of the assay: Human DNA polymerase inhibition, gamma. To be noted: for remaining activity at 100 µM: read-out: % Control at 100 μM ± S.D.
From the text: as §1, §2

SMILES strings stand for the structures. Read-outs that look alike come from different tables or passages of the source.

T2 sequence (P04293 whole entry): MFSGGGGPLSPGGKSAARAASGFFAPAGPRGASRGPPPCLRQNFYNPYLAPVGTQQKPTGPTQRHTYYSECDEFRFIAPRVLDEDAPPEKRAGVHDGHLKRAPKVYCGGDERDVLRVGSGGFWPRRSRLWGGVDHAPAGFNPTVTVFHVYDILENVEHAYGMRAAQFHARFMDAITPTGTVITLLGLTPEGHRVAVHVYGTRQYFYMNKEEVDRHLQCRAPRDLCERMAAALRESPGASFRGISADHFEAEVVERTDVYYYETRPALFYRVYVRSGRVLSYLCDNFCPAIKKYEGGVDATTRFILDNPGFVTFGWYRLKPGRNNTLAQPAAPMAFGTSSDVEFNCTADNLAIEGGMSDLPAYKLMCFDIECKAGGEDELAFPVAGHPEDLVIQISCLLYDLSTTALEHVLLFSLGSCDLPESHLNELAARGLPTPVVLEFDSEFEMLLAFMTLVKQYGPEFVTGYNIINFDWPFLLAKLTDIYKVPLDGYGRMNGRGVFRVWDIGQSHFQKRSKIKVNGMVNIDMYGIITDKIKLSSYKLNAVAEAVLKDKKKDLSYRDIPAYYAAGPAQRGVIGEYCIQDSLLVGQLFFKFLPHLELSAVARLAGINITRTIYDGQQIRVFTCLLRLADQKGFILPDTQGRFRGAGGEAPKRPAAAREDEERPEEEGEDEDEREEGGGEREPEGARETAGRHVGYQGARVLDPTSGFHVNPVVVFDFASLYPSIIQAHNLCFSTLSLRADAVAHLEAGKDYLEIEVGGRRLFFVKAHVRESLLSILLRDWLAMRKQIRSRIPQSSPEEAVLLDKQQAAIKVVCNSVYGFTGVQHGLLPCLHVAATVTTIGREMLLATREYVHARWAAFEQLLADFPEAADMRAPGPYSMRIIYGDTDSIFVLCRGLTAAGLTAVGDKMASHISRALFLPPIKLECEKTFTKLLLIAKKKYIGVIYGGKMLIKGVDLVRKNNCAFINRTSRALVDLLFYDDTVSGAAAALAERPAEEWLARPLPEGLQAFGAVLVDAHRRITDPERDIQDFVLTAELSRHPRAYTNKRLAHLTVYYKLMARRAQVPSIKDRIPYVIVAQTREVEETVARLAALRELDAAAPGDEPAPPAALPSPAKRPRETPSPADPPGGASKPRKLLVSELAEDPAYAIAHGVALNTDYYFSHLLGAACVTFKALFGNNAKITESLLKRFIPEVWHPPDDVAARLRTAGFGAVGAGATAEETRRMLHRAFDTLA

As to `O=C(O)P(=O)(O)O` [PFA, phosphonoformic acid], the IC50 was 700 nM in assay [1]; 0.7 µM at HSV-1 DNA polymerase (HSV-1, "activated" DNA, read-out: ID50 (the source's name)); over 100 µM at human DNA polymerase β (Pol β, "activated" DNA, read-out: ID50 (the source's name)); over 100 µM on human DNA polymerase γ (Pol γ, "activated" DNA, read-out: ID50 (the source's name)). Moreover, the remaining activity at 100 µM at human DNA polymerase β (Pol β, 100 μM, "activated" DNA) was found to be 89 ± 8%; at human DNA polymerase γ (Pol γ, 100 μM, "activated" DNA), 55 ± 5%.
Take `O=C(O)P(O)(O)=S` [TPFA, thiophosphonoformic acid]: the IC50 in assay [1] was 1000 nM; on HSV-1 DNA polymerase, 11.8 µM; on human DNA polymerase β it was over 100 µM; against human DNA polymerase γ it was over 100 µM. Also, the remaining activity at 100 µM on human DNA polymerase β amounted to 91 ± 4%; on human DNA polymerase γ, 75 ± 3%.
